This note sets out measurements from patent US10106515B2, “1-(cyclopent-2-en-1-yl)-3-(2-hydroxy-3-(arylsulfonyl)phenyl)urea derivatives as CXCR2 inhibitors” (GLAXOSMITHKLINE INTELLECTUAL PROPERTY DEVELOPMENT LIMITED, priority 2014, dated 2018).

The structures appear in SMILES notation. Where a name gives a salt, the structure may show the parent alone. Bounds are passed on as bounds.

The assay concerns the target T1, recombinant human CXCR2 (Homo sapiens, UniProt P25025).
T1 construct: TEV protease site; Gal4-VP16 transcription factor
T1 sequence (P25025 1-360): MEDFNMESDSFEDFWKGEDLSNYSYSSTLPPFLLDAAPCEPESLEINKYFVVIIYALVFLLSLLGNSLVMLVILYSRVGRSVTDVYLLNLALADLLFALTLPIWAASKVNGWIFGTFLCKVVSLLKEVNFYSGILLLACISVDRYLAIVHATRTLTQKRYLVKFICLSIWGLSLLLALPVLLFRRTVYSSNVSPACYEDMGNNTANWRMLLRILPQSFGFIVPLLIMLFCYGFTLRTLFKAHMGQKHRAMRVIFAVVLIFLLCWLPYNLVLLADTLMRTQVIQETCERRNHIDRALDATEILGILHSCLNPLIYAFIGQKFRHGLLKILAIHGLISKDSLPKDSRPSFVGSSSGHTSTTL
The assay can be described thus: CXCR2 Tango assay. The format is cell-based. The note with it: mean pIC50 of multiple test results; stimulated with 80 nM hCXCL1; reporter gene blue/green emission ratio; read-out: pIC50 (CXCR2 Tango assay) (converted). An excerpt:
The assay measures ligand-induced activation of the receptor CXCR2 in a stable cell line containing the recombinant human CXCR2 linked to a TEV protease site and a Gal4-VP16 transcription factor (Invitrogen). Ligand binding to the receptor results in the recruitment of arrestin proteins (tagged with protease) to the receptor and triggers the release of a tethered transcription factor. The transcription factor enters the nucleus and activates the transcription of the reporter gene. The ability of a compound to inhibit CXCR2 activation is indirectly assessed by measuring the reporter gene activity.
A vial of cryopreserved cells was removed from liquid nitrogen and rapidly thawed in a water bath at 37° C. with gentle agitation. The contents of the vial were transferred drop-wise into Thawing Medium in a sterile 15 ml conical tube and then centrifuged at 1000 rpm for 4-5 min. Then the cell pellets were resuspended in Assay Medium at a density of ˜200,000 cells/ml. All test compounds were dissolved in DMSO at a concentration of 10 mM and were prepared in 100% DMSO to provide 10 point dose response curves. A reference CXCR2 antagonist was added to wells in row 2, columns 1-5 & 7-11. Exemplified compounds 1-4, 7, 8-10, 13-22, 24-26, 28-30, 32, 33, 36, 37, 40, 42-44. 95-110, 115-118, 120, 121, 125, 126, 129-134, 137, 138, 140, 142, 147-149, 153-157, 159-162, 163-166, 168, 170, 172, 174-180 and 202 were tested using the CXCR2 antagonist sodium 3-chloro-6-(3-(2,3-dichlorophenyl)ureido)-2-sulfamoylphenolate as reference compound (Reference Compound 1) (published International patent application WO2002/079122). […] Test compounds were added to wells in row 2, columns 13-17 & 19-23 and rows 3-15, columns 1-5 & 7-11/13-17 & 19-23 (columns 6 and 18 as positive controls and un-stimulated controls respectively; columns 12 and 24 as cell-free control). Compounds in solution were added to the assay plate (Greiner 781090) using an Echo (Labcyte) concentration-response program (50 nl/well). The cell-free, un-stimulated and positive controls were loaded with 50 nl/well pure DMSO to ensure that the DMSO concentration was constant across the plate for all assays. Using Multi-drop Combi (Thermo) with standard cassette, 50 μl of Assay Medium was added to each well in the cell-free controls (columns 12 and 24); 50 μl of the cell suspension without hCXCL1 (a CXCR2 ligand) was added to each well in column 18 of the plate (˜10,000 cells per well); and 50 μl of the cell suspension with 80 nM hCXCL1 was added to the rest of wells of the plate (˜10,000 cells per well). The cells were incubated overnight at 37° C./5% CO2. 10 μl of 6× substrate mixture (LiveBLAzer™-FRET B/G substrate (CCF4-AM) Cat # K1096 from Invitrogen, Inc.) was added to each well using Multi-drop Combi (Thermo) with small-tube cassette and the plates incubated at room temperature for 2 h in the dark. The plate was finally read on EnVision using one excitation channel (409 nm) and two emission channels (460 nm and 530 nm).
The blue/green emission ratio (460 nm/530 nm) was calculated for each well, by dividing the background-subtracted Blue emission values by the background-subtracted Green emission values. The dose response curve was based on sigmoidal dose-response model. All ratio data was normalized based upon the maximum emission ratio of positive control (hCXCL1) and minimum emission ratio of negative control (DMSO) on each plate. The intrinsic activity (IA) of each compound would be the normalized percentage of its maximum response after curve fitting.
All exemplified compounds (except for Compounds 203 and 204) were tested in the CXCR2 Tango assay or a similar assay described above. The data mentioned below represents a mean pIC 50 value of multiple test results. It is understood that the data illustrated below may have reasonable variation depending on the specific conditions and procedures used by the person conducting the testing.
On the technique in general: Reporter assays use an easily measured gene product as a stand-in for the process of interest.
As for `CC1=CCCC1NC(=O)Nc1ccc(Cl)c(S(=O)(=O)C(C)c2ccccn2)c1O` (centres unmarked) [Compound 25, 1-(4-chloro-2-hydroxy-3-((1-(pyridin-2-yl)ethyl)sulfonyl)phenyl)-3-(2-methylcyclopent-2-en-1-yl)urea, trifluoroacetic acid salt], the IC50 was at most 10 nM.
`CC1(S(=O)(=O)c2c(Cl)ccc(NC(=O)N[C@@H]3CCC=C3Cl)c2O)COC1` [Compound 181, (R)-1-(4-chloro-2-hydroxy-3-((3-methyloxetan-3-yl)sulfonyl)phenyl)-3-(2-chlorocyclopent-2-en-1-yl)urea]: the IC50 is above 10000 nM.
The figure for `CC1(S(=O)(=O)c2c(Cl)ccc(NC(=O)NC3CCC=C3Cl)c2O)CCOCC1` (centres unmarked) [Compound 44, 1-(4-chloro-2-hydroxy-3-((4-methyltetrahydro-2H-pyran-4-yl)sulfonyl)phenyl)-3-(2-chlorocyclopent-2-en-1-yl)urea] is at most 10 nM; for `CC(C)(C(F)(F)F)S(=O)(=O)c1c(Cl)ccc(NC(=O)NC2CCC=C2Cl)c1O` (centres unmarked) [Compound 2, 1-(4-chloro-2-hydroxy-3-((1,1,1-trifluoro-2-methylpropan-2-yl)sulfonyl)phenyl)-3-(2-chlorocyclopent-2-en-1-yl)urea] it is at most 1 nM.
The figure for `CC1=CCC[C@H]1NC(=O)Nc1ccc(Cl)c(S(=O)(=O)N2CCCCC2)c1O` [Compound 91, (R)-1-(4-chloro-2-hydroxy-3-(piperidin-1-ylsulfonyl)phenyl)-3-(2-methylcyclopent-2-en-1-yl)urea trifluoroacetic acid salt] is at most 1 nM; for `CC(F)(F)S(=O)(=O)c1c(Cl)ccc(NC(=O)NC2C=CCC2)c1O` (centres unmarked) [Compound 36, 1-(4-chloro-3-((1,1-difluoroethyl)sulfonyl)-2-hydroxyphenyl)-3-(cyclopent-2-en-1-yl)urea] it is at most 10 nM; for `C[C@@]1(S(=O)(=O)c2c(Cl)ccc(NC(=O)N[C@@H]3CCC=C3Cl)c2O)CCOC1` (single isomer, unassigned) [Compound 198] it is at most 10 nM.
As for `CC1(S(=O)(=O)c2c(Cl)ccc(NC(=O)N[C@@H]3CCC=C3Cl)c2O)CC(O)C1` (stereo partly drawn) [Compound 38, (R)-1-(4-chloro-2-hydroxy-3-((3-hydroxy-1-methylcyclobutyl)sulfonyl)phenyl)-3-(2-chlorocyclopent-2-en-1-yl)urea], the IC50 was at most 1 nM.
The figure for `CC(C)(CO)S(=O)(=O)c1c(Cl)ccc(NC(=O)N[C@@H]2CCC=C2Cl)c1O` [Compound 12, (R)-1-(4-chloro-2-hydroxy-3-((1-hydroxy-2-methylpropan-2-yl)sulfonyl)phenyl)-3-(2-chlorocyclopent-2-en-1-yl)urea] is at most 10 nM; for `CC(C)(C)S(=O)(=O)c1c(Cl)ccc(NC(=O)NC2CCC=C2Cl)c1O` (centres unmarked) [Compound 3, 1-(3-(tert-butylsulfonyl)-4-chloro-2-hydroxyphenyl)-3-(2-chlorocyclopent-2-en-1-yl)urea] it is at most 10 nM.
The figure for `O=C(Nc1ccc(Cl)c(S(=O)(=O)[C@H]2CCOC2)c1O)N[C@@H]1CCC=C1Cl` [Compound 166, 1-(4-chloro-2-hydroxy-3-(((S)-tetrahydrofuran-3-yl)sulfonyl)phenyl)-3-((R)-2-chlorocyclopent-2-en-1-yl)urea] is at most 1 nM; for `CC(C)(CCO)S(=O)(=O)c1c(Cl)ccc(NC(=O)N[C@@H]2CCC=C2Cl)c1O` [Compound 6, (R)-1-(4-chloro-2-hydroxy-3-((4-hydroxy-2-methylbutan-2-yl)sulfonyl)phenyl)-3-(2-chlorocyclopent-2-en-1-yl)urea] it is at most 1 nM; for `O=C(Nc1ccc(Cl)c(S(=O)(=O)C2(F)CCOCC2)c1O)N[C@@H]1CCC=C1Cl` [Compound 168, (R)-1-(4-chloro-3-((4-fluorotetrahydro-2H-pyran-4-yl)sulfonyl)-2-hydroxyphenyl)-3-(2-chlorocyclopent-2-en-1-yl)urea] it is at most 1 nM.
Take `C[C@]1(S(=O)(=O)c2c(Cl)ccc(NC(=O)N[C@@H]3CCC=C3Cl)c2O)CCOC1` (single isomer, unassigned) [Compound 197]: the IC50 was at most 10 nM.
For `CC1=CCC[C@H]1NC(=O)Nc1ccc(Cl)c(S(=O)(=O)C2CC3(COC3)C2)c1O` [Compound 77, (R)-1-(3-(2-oxaspiro[3.3]heptan-6-ylsulfonyl)-4-chloro-2-hydroxyphenyl)-3-(2-methylcyclopent-2-en-1-yl)urea], the IC50 was at most 1 nM.
Turning to `CC1=CCC[C@H]1NC(=O)Nc1ccc(Cl)c(S(=O)(=O)C2CC[C@@H](N(C)C)C2)c1O` (stereo partly drawn) [Compound 127, cis-1-(4-chloro-3-((3-(dimethylamino)cyclopentyl)sulfonyl)-2-hydroxyphenyl)-3-((R)-2-methylcyclopent-2-en-1-yl)urea], the IC50 is at most 1 nM.
Take `CC1=CCCC1NC(=O)Nc1ccc(Cl)c(S(=O)(=O)[C@H]2C[C@@H](O)C2)c1O` (stereo partly drawn) [Compound 95, 1-(4-chloro-2-hydroxy-3-((cis-3-hydroxycyclobutyl)sulfonyl)phenyl)-3-(2-methylcyclopent-2-en-1-yl)urea]: the IC50 was at most 1 nM.
As for `CO[C@H]1C[C@@H](S(=O)(=O)c2c(Cl)ccc(NC(=O)NC3C=CCC3)c2O)C1` (stereo partly drawn) [Compound 147, 1-(4-chloro-2-hydroxy-3-((cis-3-methoxycyclobutyl)sulfonyl)phenyl)-3-(cyclopent-2-en-1-yl)urea], the IC50 was at most 10 nM.
The result for `CC(c1ccccn1)S(=O)(=O)c1c(Cl)ccc(NC(=O)NC2C=CCC2)c1O` (centres unmarked) [Compound 24, 1-(4-chloro-2-hydroxy-3-((1-(pyridin-2-yl)ethyl)sulfonyl)phenyl)-3-(cyclopent-2-en-1-yl)urea, trifluoroacetic acid salt] reads at most 10 nM; that for `CC1=CCC[C@H]1NC(=O)Nc1ccc(Cl)c(S(=O)(=O)N2CCC(F)(F)C2)c1O` [Compound 88, (R)-1-(4-chloro-3-((3,3-difluoropyrrolidin-1-yl)sulfonyl)-2-hydroxyphenyl)-3-(2-methylcyclopent-2-en-1-yl)urea], at most 1 nM.
In the case of `CC1=CCC[C@H]1NC(=O)Nc1ccc(Cl)c(S(=O)(=O)C(C)CO)c1O` (stereo partly drawn) [Compound 34, 1-(4-chloro-2-hydroxy-3-((1-hydroxypropan-2-yl)sulfonyl)phenyl)-3-((R)-2-methylcyclopent-2-en-1-yl)urea], the IC50 is at most 10 nM.
The figure for `O=C(Nc1ccc(Cl)c(S(=O)(=O)C2(F)CCOC2)c1O)N[C@@H]1CCC=C1Cl` (stereo partly drawn) [Compound 167, 1-(4-chloro-3-((3-fluorotetrahydro-furan-3-yl)sulfonyl)-2-hydroxyphenyl)-3-((R)-2-chlorocyclopent-2-en-1-yl)urea] is at most 1 nM; for `CC1=CCC[C@H]1NC(=O)Nc1ccc(Cl)c(S(=O)(=O)[C@]2(C)CCOC2)c1O` [Compound 196, 1-(4-chloro-2-hydroxy-3-(((R)-3-methyltetrahydrofuran-3-yl)sulfonyl)phenyl)-3-((R)-2-methylcyclopent-2-en-1-yl)urea] it is at most 10 nM.
